Numbered stars: 1 amine (or outer) side, 2 acyl side, 3 side chain; on linkers, the order of the positions; unused ones are H or OH. Square brackets hold non-standard residues; d marks the D form. Peptide text beside a SMILES is read from it. * marks the point of attachment. Benzoyl(4-CF3) = O=C(c1ccc(C(F)(F)F)cc1)*; X6 = CCCN([C@@H](CC(C)C)C(=O)[*:2])[*:1]; X3 = O=C(N1Cc2ccccc2CN1[*:1])[*:2]; Hydrocinnamoyl = O=C(CCc1ccccc1)*; Tic = O=C(O)[C@@H]1Cc2ccccc2CN1; NMeL = CN[C@@H](CC(C)C)C(=O)O; d(hSer) = N[C@H](CCO)C(=O)O; Nva = CCC[C@H](N)C(=O)O
Target: T1, human Chemokine like receptor 1 (Homo sapiens, UniProt Q99788)
T1 construct: host or cells: U2OS (Tango CMKLR1-bla U2OS)
T1 sequence (Q99788 1-373): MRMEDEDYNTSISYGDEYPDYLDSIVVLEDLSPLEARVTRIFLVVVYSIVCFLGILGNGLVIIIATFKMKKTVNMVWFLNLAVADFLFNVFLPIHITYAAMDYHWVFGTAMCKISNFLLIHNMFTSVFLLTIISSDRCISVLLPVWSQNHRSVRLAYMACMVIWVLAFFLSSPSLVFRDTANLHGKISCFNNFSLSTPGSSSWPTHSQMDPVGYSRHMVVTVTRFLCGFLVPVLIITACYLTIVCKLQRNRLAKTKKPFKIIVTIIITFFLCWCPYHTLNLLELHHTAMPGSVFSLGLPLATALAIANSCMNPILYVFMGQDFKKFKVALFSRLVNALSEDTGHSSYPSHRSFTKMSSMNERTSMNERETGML
Assay: Activation of Tango CMKLR1-bla U2OS cells (beta-lactamase FRET reporter)
Format: cell-based
Conditions: not given
Description: The polypeptide sequences described above are the polypeptide sequences disclosed in the patent JP2010-229093A of BANYU PHARMA CO LTD: (D-Tyr)-Phe-Leu-Pro-(D-Ser)-Gln-Phe-(D-Ala)-Tic-Ser was used as a positive control (SEQ ID NO: 102).
The activation of the compound on Tango™ CMKLR1-bla U2OS cells (Invitrogen Cat. nos. K1551) was tested.
The activation of each compound in the above experiments on Tango™ CMKLR1-bla U2OS cells was determined as follows:
Day 1: Cell Seeding on Plate
2. The medium was removed, and the cells were washed with DPBS twice, followed by addition of 3 mL of 0.05% trypsin, and placed in a 37° C., 5% CO2 incubator (Thermo Fisher, Waltham, Massachusetts, USA) for 3-5 minutes. After the cells were rounded, 3-5 mL of medium (medium formula: DMEM 90%, Dialyzed FBS 10%, NEAA 0.1 mM, HEPES (pH 7.3) 25 mM, Penicillin 100 U/mL, Streptomycin 100 μg/mL) was added to terminate digestion.
2. The digested cells were transferred to a 15 mL centrifuge tube (430790, Corning), centrifuged at 1000 rpm for 5 minutes (5810R, Eppendorf, Hamburg, Germany), and the supernatant was discarded.
3. 7 mL of medium (DMEM+10% FBS) was added, blowed into a single cell suspension, counted by a cell counter, and adjusted the cell suspension to a desired cell density of 250,000/mL with the medium.
4. The cell suspension was seeded into a 384-well cell plate (Corning 3712) in 40 μL/well to make the number of cells 10000 cells/well, and 32 μL of medium was added to the blank control.
5. The incubation was performed overnight at 37° C. under 5% CO2.
Day 2: Dosing and Testing
1. Preparation of 200× Compound Plate
1.1 The test compound was formulated into a 10 mM working solution in DMSO.
1.2 45 μL of 10 mM test compound was added to the 2nd column of rows A to P in the Echo-384 well plate. The compound was subjected to a 3-fold dilution with Precision (30 μL of DMSO was added to the 3rd to 11th columns; 15 μL of the drug solution was pipetted from the 2nd column to the 3rd column, blown and evenly mixed; then 15 μL of the drug solution was pipetted from the 3rd column to the 4th column, blown and evenly mixed; the drugs was subjected to a 3-fold dilution to obtain 10 concentrations in total). The 1st and 12th columns of the Echo-384 well plate were supplemented with 30 μL of DMSO.
2. Preparation of Intermediate Plate
500 nL, i.e., 0.5 μL of the diluted compound (or DMSO) in the 200× compound plate was transferred into the corresponding position of V-bottom 384-well plate with Echo. 20 μL of medium was added to each well, centrifuged, shaken and evenly mixed. The concentration of the drugs in each well of the 2nd to 11th column of intermediate plate (i.e., 5× compound plate) were shown in following Table 4.
3.1 The cell plate was taken out from the incubator and observed under a microscope. The diluted compound or DMSO in the intermediate plate was added to the cell plate in 10 μL/well in the corresponding cell plate, and 40 μL of medium was pre-filled in each well.
3.2 The cells were incubated at 37° C. under 5% CO2 for 4 hours.
4.1 1 mM CCF4-AM, solution B, Solution C, and Solution D were used to prepare an appropriate amount of 6× detection solution. The LiveBLAzer™-FRET B/G Loading kit (K1095, Thermo Fisher, Waltham, Massachusetts, USA) kit containing CCF-4AM and solutionB, solutionC, and solutionD was also purchased from invitrogen (K1157, Thermo Fisher, Waltham, Massachusetts, USA).
4.2 The cells were observed under a microscope and the cell plate was equilibrated to room temperature.
4.3 6 μL of CCF-4AM dissolved solution A, 60 μL of solution B, 904 μL of solution C and 30 μL of solution D were pipetted in an EP tube, blown, and evenly mixed to obtain a 6× detection solution. The prepared 6× detection solution was pipetted to a 384-well plate in 10 μL/well.

Row | Structure (SMILES) | EC50
1 | CCC[C@H](NC(=O)[C@H](Cc1ccccc1)NC(=O)[C@H](N)Cc1ccc(O)cc1)C(=O)N1CCC[C@H]1C(=O)N[C@H](CO)C(=O)N[C@@H](CCC(N)=O)C(=O)N[C@@H](Cc1ccccc1)C(=O)N[C@H](C)C(=O)N1Cc2ccccc2C[C@H]1C(=O)N[C@@H](CO)C(=O)O [YW-196, (D-Tyr)-Phe-Nva-Pro-(D-Ser)-Gln-Phe-(D-Ala)-Tic-Ser] (H-[dY]F[Nva]P[dS]QF[dA][Tic]S-OH) | 39 nM

Same assay, conditions: Tango CMKLR1-bla U2OS cells, 4 hours incubation, four-parameter fit of activation rate

Row | EC50 | Structure (SMILES)
2 | no fit | CC(C)C[C@H](NC(=O)[C@H](Cc1ccccc1)NC(=O)[C@H](N)Cc1ccc(O)cc1)C(=O)N1CCC[C@H]1C(=O)N[C@H](CO)C(=O)N[C@@H](CCC(N)=O)C(=O)N[C@H](CO)C(=O)N[C@H](C)C(=O)N1Cc2ccccc2CN1C(=O)N[C@@H](CO)C(=O)O [YW-147, (D-Tyr)-Phe-Leu-Pro-(D-Ser)-Gln-(D-Ser)-(D-Ala)-azaTic-Ser-OH] (H-[dY]FLP[dS]Q[dS][dA][X3]S-OH; N-terminus assumed)

Same assay, conditions: determination by the method of Effect Embodiment 1; read-out: EC50

Row | Structure (SMILES) | EC50
3 | CC(C)C[C@H](NC(=O)[C@H](Cc1ccccc1)NC(=O)[C@H](N)Cc1ccc(O)cc1)C(=O)N1CCC[C@H]1C(=O)N[C@H](CO)C(=O)N[C@@H](CCC(N)=O)C(=O)N[C@H](CO)C(=O)N[C@H](C)C(=O)N1Cc2ccccc2CN1C(=O)N[C@@H](CO)C(=O)O [YW-147, (D-Tyr)-Phe-Leu-Pro-(D-Ser)-Gln-(D-Ser)-(D-Ala)-azaTic-Ser-OH] (H-[dY]FLP[dS]Q[dS][dA][X3]S-OH; N-terminus assumed) | > 50000 nM
4 | CC(C)C[C@@H](C(=O)N1CCC[C@H]1C(=O)N[C@H](CCO)C(=O)N[C@@H](CCC(N)=O)C(=O)N[C@@H](Cc1ccccc1)C(=O)N[C@H](C)C(=O)N1Cc2ccccc2C[C@H]1C(=O)N[C@@H](CO)C(=O)O)N(C)C(=O)[C@H](Cc1ccccc1)NC(=O)[C@H](N)Cc1ccc(O)cc1 [YW-175, (D-Tyr)-Phe-(NMe-Leu)-Pro-(D-HoSer)-Gln-Phe-(D-Ala)-Tic-Ser-OH] (H-[dY]F[NMeL]P[d(hSer)]QF[dA][Tic]S-OH; N-terminus assumed) | 91 nM

Results, then the compound that gave them:

Row | EC50 | Structure (SMILES)
5 | 16 nM | CCCN(C(=O)[C@H](Cc1ccccc1)NC(=O)[C@H](N)Cc1ccc(O)cc1)[C@@H](CC(C)C)C(=O)N1CCC[C@H]1C(=O)N[C@H](CO)C(=O)N[C@@H](CCC(N)=O)C(=O)N[C@@H](Cc1ccccc1)C(=O)N[C@H](C)C(=O)N1Cc2ccccc2C[C@H]1C(=O)N[C@@H](CO)C(=O)O [YW-184, (D-Tyr)-Phe-(NPr-Leu)-Pro-(D-Ser)-Gln-Phe-(D-Ala)-Tic-Ser] (H-[dY]F[X6]P[dS]QF[dA][Tic]S-OH)
6 | 11 nM | CCCN(C(=O)[C@H](Cc1ccccc1)NC(=O)[C@@H](Cc1ccc(O)cc1)NC(=O)CCc1ccccc1)[C@@H](CC(C)C)C(=O)N1CCC[C@H]1C(=O)N[C@H](CO)C(=O)N[C@@H](CCC(N)=O)C(=O)N[C@@H](Cc1ccccc1)C(=O)N[C@H](C)C(=O)N1Cc2ccccc2C[C@H]1C(=O)N[C@@H](CO)C(=O)O [YW-186, 3-Phenylpropanoyl-(D-Tyr)-Phe-(NPr-Leu)-Pro-(D-Ser)-Gln-Phe-(D-Ala)-Tic-Ser] (Hydrocinnamoyl-[dY]F[X6]P[dS]QF[dA][Tic]S-OH)
7 | 0.8 nM | CC(C)C[C@@H](C(=O)N1CCC[C@H]1C(=O)N[C@H](CO)C(=O)N[C@@H](CCC(N)=O)C(=O)N[C@@H](Cc1ccccc1)C(=O)N[C@H](C)C(=O)N1Cc2ccccc2C[C@H]1C(=O)N[C@@H](CO)C(=O)O)N(C)C(=O)[C@H](Cc1ccccc1)NC(=O)[C@@H](Cc1ccc(O)cc1)NC(=O)c1ccc(C(F)(F)F)cc1 [YW-195, 4-(trifluoromethyl)benzoyl-(D-Tyr)-Phe-(NMe-Leu)-Pro-(D-Ser)-Gln-Phe-(D-Ala)-Tic-Ser] ({Benzoyl(4-CF3)}-[dY]F[NMeL]P[dS]QF[dA][Tic]S-OH)
